The values below come from patent US10597696B2, “Detection of Niemann-Pick disease comprising detection of lysozyme and cathepsins” (UNIVERSITY OF NOTRE DAME DU LAC, priority 2013, dated 2020).

The subject of experiment [1] is NPC patients. Nature of the experiment: Plasma cathepsin S level in Miglustat-treated NPC patients. The experiment is classed as in vivo, human. The settings on record: patients treated with Miglustat vs untreated NPC patients. The source says: (§1) A major hurdle is that inflammatory products of cerebral disease are not easily detected in blood. Inflammation in multiple organs and heterogeneity in disease present additional challenges in distinguishing the extent to which a blood based marker reflects disease in brain or other afflicted organs. We utilized murine models of the monogenetic disorder Niemann Pick Type C (NPC) that present aggressive forms of cerebral and liver inflammatory disease to identify secretory biomarkers for neuroinflammation. […] We utilized 2-hydroxypropyl-beta-cyclodextrin (HPβCD; an emerging therapeutic) administered intraperitoneally in mice, which abrogates inflammatory pathology in the liver but has limited effect on the brain. By analyzing the corresponding effects on inflammatory plasma proteins, we identified cathepsin S as a lead indicator of liver disease. In contrast lysozyme was a marker of both brain and liver disease. The study was extended on human samples. The level of lysozyme and cathepsin S were determined in the plasma samples from healthy individuals (age and gender matched), untreated NPC patients and Miglustat (also known as Zavesca) treated NPC patients. […] The plasma concentration of these two markers in untreated and Miglustat treated NPC samples when analyzed together yielded a composite score to assess extent of neurodegeneration. […]

For experiment [2], the system named is NPC patients. Nature of the experiment: Plasma lysozyme level in Miglustat-treated NPC patients. As to conditions: Miglustat-treated NPC samples vs untreated NPC and healthy controls. In kind it is in vivo, human.
Text: as §1

As for `CCCCN1C[C@H](O)[C@@H](O)[C@H](O)[C@H]1CO` [Miglustat], in the experiment on NPC patients [1], the “plasma cathepsin S” value is “further elevated”. Also, the plasma lysozyme level entry in the experiment on NPC patients [2] is “reduced compared to untreated NPC patients and were equivalent to healthy controls”.
